pIC50: −log10 of the molar value. The source made the active and inactive calls. The calls are words filed in the database; no cut-off is given here.
How the values were obtained:
K562 [1] = experiment: Induction of apoptosis in human K562 cells assessed as early apoptotic cells at 3 uM incubated for 48 hrs by annexin V-FITC/PI staining based flow cytometry (reference value: 0.32 %); type: functional
MKN-45 = experiment: Cytotoxicity against human MNK45 cells assessed as inhibition of cell growth incubated for 48 hrs by CCK-8 assay; type: functional, cell-based; settings: MKN-45, 48 h
K562 [2] = experiment: Cytotoxicity against human K562 cells assessed as inhibition of cell growth incubated for 48 hrs by CCK-8 assay; type: functional, cell-based; settings: K562, 48 h
K562 [3] = experiment: Induction of apoptosis in human K562 cells assessed as chromatin condensation at 3 to 12 uM incubated for 48 hrs by Hoechst 33342/PI staining based fluorescence microscopic analysis; type: functional, cell-based; settings: dose 3-12 µM
K562 [4] = experiment: Induction of apoptosis in human K562 cells assessed as increase in Bax gene expression at 3 to 12 uM after 48 hrs by SYBR green dye-based qRT-PCR analysis; type: functional, cell-based; settings: dose 3-12 µM
K562 [5] = experiment: Induction of apoptosis in human K562 cells assessed as increase in number of broken cells at 3 to 12 uM incubated for 48 hrs by light microscopic analysis; type: functional, cell-based; settings: dose 3-12 µM
K562 [6] = experiment: Induction of apoptosis in human K562 cells assessed as decrease in cell density at 3 to 12 uM incubated for 48 hrs by Hoechst 33342/PI staining based fluorescence microscopic analysis; type: functional; settings: dose 3-12 µM
K562 [7] = experiment: Induction of mitochondrial membrane potential loss in human K562 cells assessed as cell population with intact mitochondrial membrane potential at 3 uM after 48 hrs by JC1 dye-based flow cytometry analysis (reference value: 96.48%); type: functional
K562 [8] = experiment: Induction of apoptosis in human K562 cells assessed as late apoptotic cells at 3 uM incubated for 48 hrs by annexin V-FITC/PI staining based flow cytometry (reference value: 0.11 %); type: functional
K562 [9] = experiment: Induction of ROS generation in human K562 cells at 6 uM incubated for 48 hrs by DCFH-DA staining-based flow cytometry (reference value: 3.68 %); type: functional
K562 [10] = experiment: Induction of apoptosis in human K562 cells assessed as increase in cleaved caspase 9 gene expression at 3 to 12 uM after 48 hrs by SYBR green dye-based qRT-PCR analysis; type: functional, cell-based; settings: dose 3-12 µM
K562 [11] = experiment: Induction of mitochondrial membrane potential loss in human K562 cells assessed as cell population with mitochondrial membrane potential collapse at 12 uM after 48 hrs by JC1 dye-based flow cytometry analysis (reference value: 2.75%); type: functional
K562 [12] = experiment: Induction of apoptosis in human K562 cells assessed as early apoptotic cells at 12 uM incubated for 48 hrs by annexin V-FITC/PI staining based flow cytometry (reference value: 0.32 %); type: functional
K562 [13] = experiment: Induction of apoptosis in human K562 cells assessed as increase in cleaved PARP gene expression at 3 to 12 uM after 48 hrs by SYBR green dye-based qRT-PCR analysis; type: functional, cell-based; settings: dose 3-12 µM
K562 [14] = experiment: Induction of apoptosis in human K562 cells assessed as increase in cytochrome c protein expression after 48 hrs by Western blot analysis; type: functional, cell-based; settings: dose 3-12 µM
K562 [15] = experiment: Induction of apoptosis in human K562 cells assessed as nuclear fragmentation at 3 to 12 uM incubated for 48 hrs by Hoechst 33342/PI staining based fluorescence microscopic analysis; type: functional, cell-based; settings: dose 3-12 µM
K562 [16] = experiment: Induction of apoptosis in human K562 cells assessed as decrease in Bcl-2 protein expression after 48 hrs by Western blot analysis; type: functional, cell-based; settings: dose 3-12 µM
K562 [17] = experiment: Induction of mitochondrial membrane potential loss in human K562 cells assessed as cell population with intact mitochondrial membrane potential at 6 uM after 48 hrs by JC1 dye-based flow cytometry analysis (reference value: 96.48%); type: functional
K562 [18] = experiment: Induction of apoptosis in human K562 cells assessed as decrease in cell density at 3 to 12 uM incubated for 48 hrs by light microscopic analysis; type: functional, cell-based; settings: dose 3-12 µM
K562 [19] = experiment: Induction of apoptosis in human K562 cells assessed as late apoptotic cells at 12 uM incubated for 48 hrs by annexin V-FITC/PI staining based flow cytometry (reference value: 0.11 %); type: functional
K562 [20] = experiment: Potency index, ratio of 5-FU IC50 to test compound IC50 for cytotoxicity against human K562 cells assessed as inhibition of cell growth incubated for 48 hrs by CCK-8 assay; type: functional
MCF7 = experiment: Cytotoxicity against human MCF7 cells assessed as inhibition of cell growth incubated for 48 hrs by CCK-8 assay; type: functional, cell-based; settings: MCF7, 48 h
A549 [21] = experiment: Cytotoxicity against human A549 cells assessed as inhibition of cell growth incubated for 48 hrs by CCK-8 assay; type: functional, cell-based; settings: A549, 48 h
K562 [22] = experiment: Induction of mitochondrial membrane potential loss in human K562 cells assessed as cell population with intact mitochondrial membrane potential at 12 uM after 48 hrs by JC1 dye-based flow cytometry analysis (reference value: 96.48%); type: functional
K562 [23] = experiment: Induction of apoptosis in human K562 cells assessed as increase in cleaved caspase 9 protein expression at 3 to 12 uM after 48 hrs by Western blot analysis; type: functional, cell-based; settings: dose 3-12 µM
K562 [24] = experiment: Induction of apoptosis in human K562 cells assessed as late apoptotic cells at 6 uM incubated for 48 hrs by annexin V-FITC/PI staining based flow cytometry (reference value: 0.11 %); type: functional
K562 [25] = experiment: Induction of apoptosis in human K562 cells assessed as early apoptotic cells at 6 uM incubated for 48 hrs by annexin V-FITC/PI staining based flow cytometry (reference value: 0.32 %); type: functional
K562 [26] = experiment: Induction of apoptosis in human K562 cells assessed as increase in cleaved caspase 3 gene expression at 3 to 12 uM after 48 hrs by SYBR green dye-based qRT-PCR analysis; type: functional, cell-based; settings: dose 3-12 µM
K562 [27] = experiment: Induction of apoptosis in human K562 cells assessed as increase in cleaved PARP protein expression at 3 to 12 uM after 48 hrs by Western blot analysis; type: functional, cell-based; settings: dose 3-12 µM
K562 [28] = experiment: Induction of mitochondrial membrane potential loss in human K562 cells assessed as cell population with mitochondrial membrane potential collapse at 3 uM after 48 hrs by JC1 dye-based flow cytometry analysis (reference value: 2.75%); type: functional
K562 [29] = experiment: Induction of apoptosis in human K562 cells assessed as decrease in Bcl-2 gene expression after 48 hrs by SYBR green dye-based qRT-PCR analysis; type: functional, cell-based; settings: dose 3-12 µM
K562 [30] = experiment: Induction of ROS generation in human K562 cells at 3 uM incubated for 48 hrs by DCFH-DA staining-based flow cytometry (reference value: 3.68 %); type: functional
K562 [31] = experiment: Induction of ROS generation in human K562 cells at 12 uM incubated for 48 hrs by DCFH-DA staining-based flow cytometry (reference value: 3.68 %); type: functional
K562 [32] = experiment: Induction of apoptosis in human K562 cells assessed as increase in Bax protein expression at 3 to 12 uM after 48 hrs by Western blot analysis; type: functional, cell-based; settings: dose 3-12 µM
K562 [33] = experiment: Induction of apoptosis in human K562 cells assessed as increase in cleaved caspase 3 protein expression at 3 to 12 uM after 48 hrs by Western blot analysis; type: functional, cell-based; settings: dose 3-12 µM
K562 [34] = experiment: Potency index, ratio of diosgenin IC50 to test compound IC50 for cytotoxicity against human K562 cells assessed as inhibition of cell growth incubated for 48 hrs by CCK-8 assay; type: functional
HepG2 = experiment: Cytotoxicity against human HepG2 cells assessed as inhibition of cell growth incubated for 48 hrs by CCK-8 assay; type: functional, cell-based; settings: HepG2, 48 h
A549 [35] = experiment: Potency index, ratio of diosgenin IC50 to test compound IC50 for cytotoxicity against human A549 cells assessed as inhibition of cell growth incubated for 48 hrs by CCK-8 assay; type: functional
T-24 = experiment: Cytotoxicity against human T24 cells assessed as inhibition of cell growth incubated for 48 hrs by CCK-8 assay; type: functional, cell-based; settings: T-24, 48 h
K562 [36] = experiment: Induction of mitochondrial membrane potential loss in human K562 cells assessed as cell population with mitochondrial membrane potential collapse at 6 uM after 48 hrs by JC1 dye-based flow cytometry analysis (reference value: 2.75%); type: functional

For `CC(=O)O[C@H]1CC[C@@]2(C)C(=CC[C@H]3[C@@H]4C[C@@H]5O[C@H](CC[C@@H](C)COC(=O)[C@@H](N)Cc6c[nH]c7ccccc67)[C@@H](C)[C@@H]5[C@@]4(C)CC[C@@H]32)C1`, the Activity (K562 [1]) was 4.78%, the pIC50 (MKN-45) was 4.79 and the pIC50 (K562 [2]) was 5.36. The Activity (K562 [3]) was “Active”, the Activity (K562 [4]) was “Active” and the Activity (K562 [5]) was “Active”. The Activity (K562 [6]) was “Active”, the Activity (K562 [7]) was 90.01% and the Activity (K562 [8]) was 9.13%. For the same compound, the Activity (K562 [9]) was 22.26%, the Activity (K562 [10]) was “Active” and the Activity (K562 [11]) was 67.81%. For the same compound, the Activity (K562 [12]) was 21.45%, the Activity (K562 [13]) was “Active” and the Activity (K562 [14]) was “Dose-Dependent Effect”. The Activity (K562 [15]) was “Active”, the Activity (K562 [16]) was “Dose-Dependent Effect” and the Activity (K562 [17]) was 75.88%. For the same compound, the Activity (K562 [18]) was “Active”, the Activity (K562 [19]) was 18.85% and the “Ratio IC50” value (K562 [20]) was 4.3. The pIC50 (MCF7) was 4.95, the pIC50 (A549 [21]) was 5.11 and the Activity (K562 [22]) was 27.71%. The Activity (K562 [23]) was “Active”, the Activity (K562 [24]) was 14.13% and the Activity (K562 [25]) was 11.42%. The Activity (K562 [26]) was “Active”, the Activity (K562 [27]) was “Active” and the Activity (K562 [28]) was 8.78%. The Activity (K562 [29]) was “Dose-Dependent Effect”, the Activity (K562 [30]) was 16.85% and the Activity (K562 [31]) was 34.25%. The Activity (K562 [32]) was “Active”, the Activity (K562 [33]) was “Active” and the “Ratio IC50” value (K562 [34]) was 6.8. The pIC50 (HepG2) was 4.90, the “Ratio IC50” value (A549 [35]) was 4.2 and the pIC50 (T-24) was 5.20. The Activity (K562 [36]) was 21.23%.
